From US10294202B2, “Pyrrolidinones as herbicides” (FMC Corporation, priority 2013, dated 2019)
Like-named read-outs stand apart in the source and are kept apart here.

Key:
nutsedge, yellow = experiment: Test C pre-/postemergence herbicide test; type: in vivo, Cyperus esculentus
Procedure, shortened: (§1)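 Greenhouse plants scored visually against untreated controls 13–15 days after treatment, 0 = no effect, 100 = complete control. Test chemicals in a non-phytotoxic solvent with surfactant were applied either to soil (loam/sand) at planting or to foliage of 1- to 4-leaf plants, 2–18 cm tall.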

ryegrass, Italian = experiment: Test C pre-/postemergence herbicide test; type: in vivo, Lolium multiflorum
Procedure, shortened: as §1

wheat = experiment: Test A pre-/postemergence herbicide test; type: in vivo, Triticum aestivum; conditions: Postemergence; for Wheat plant response rating (0 to 100 scale, 0 is no effect, 100 is complete control): 500 g ai/ha
Procedure, shortened: (§2)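 Visual 0–100 ratings (100 = complete control) made about 10 days after treatment, greenhouse-held plants compared with untreated controls. Treatments: postemergence sprays on one- to two-leaf plants (2–10 cm tall) and preemergence directed soil sprays after planting in loam–sand, chemicals formulated in non-phytotoxic solvent containing surfactant.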

oilseed rape = experiment: Test C pre-/postemergence herbicide test; type: in vivo, Brassica napus
Procedure, shortened: as §1

barnyardgrass = experiment: Test A pre-/postemergence herbicide test; type: in vivo, Echinochloa crus-galli
Procedure, shortened: as §2

wheat (winter wheat) = experiment: Test C pre-/postemergence herbicide test; type: in vivo, Triticum aestivum
Procedure, shortened: as §1

galium = experiment: Test C pre-/postemergence herbicide test; type: in vivo, Galium aparine
Procedure, shortened: as §1

blackgrass = experiment: Test C pre-/postemergence herbicide test; type: in vivo, Alopecurus myosuroides; conditions: for Blackgrass plant response rating: scale 0 to 100, 0 is no effect and 100 is complete control
Procedure, shortened: as §1

pigweed = experiment: Test A pre-/postemergence herbicide test; type: in vivo, Amaranthus retroflexus
Procedure, shortened: as §2

[1] = Postemergence, 31 g ai/ha, scale 0 to 100 (0 no effect, 100 complete control)
[2] = Postemergence, 62 g ai/ha, scale 0 (no effect) to 100 (complete control)
[3] = Postemergence, 125 g ai/ha, scale 0 to 100 (0 no effect, 100 complete control)
[4] = Postemergence, 250 g ai/ha, scale 0 to 100 (0 no effect, 100 complete control)
[5] = Preemergence, 31 g ai/ha, scale 0 to 100, 0 is no effect and 100 is complete control
[6] = Preemergence, 62 g ai/ha, scale 0 to 100 (0 no effect, 100 complete control)
[7] = Preemergence, 125 g ai/ha, scale 0 to 100 (0 no effect, 100 complete control)
[8] = Preemergence, 62 g ai/ha, scale 0 to 100
[9] = 125 g ai/ha, visual rating, 0 to 100 scale, 0 no effect, 100 complete control, approximately 10 days, preemergence
[10] = Postemergence, 125 g ai/ha, 0 to 100 scale, 0 is no effect, 100 is complete control
[11] = preemergence, 500 g ai/ha, 0 to 100 scale, 0 is no effect and 100 is complete control

In the case of `O=C1NC[C@H](c2cccc(C(F)(F)F)c2)[C@H]1C(=O)Nc1ccccc1F` [Compound 204, (3R,4S)—N-(2-fluorophenyl)-2-oxo-4-[3-(trifluoromethyl)phenyl]-3-pyrrolidinecarboxamide], the “Plant response rating, Nutsedge, Yellow” value (nutsedge, yellow; [1]) is reported as 0, the “Plant response rating, Nutsedge, Yellow” value (nutsedge, yellow; [2]) is reported as 0 and the “Plant response rating, Nutsedge, Yellow” value (nutsedge, yellow; [3]) is reported as 0. The “Plant response rating, Nutsedge, Yellow” value (nutsedge, yellow; [4]) was 0, the “Nutsedge, Yellow plant response rating” value (nutsedge, yellow; [5]) was 0 and the “Nutsedge, Yellow plant response rating” value (nutsedge, yellow; [6]) was 0. The “Plant response rating, Nutsedge, Yellow” value (nutsedge, yellow; [7]) was 0, the “Plant response rating (scale of 0 to 100), Nutsedge, Yellow” value (nutsedge, yellow; Preemergence, 250 g ai/ha) was 0 and the “Plant response rating, Ryegrass, Italian” value (ryegrass, Italian; [1]) was 0. For the same compound, the “Plant response rating, Ryegrass, Italian” value (ryegrass, Italian; [2]) was 0, the “Plant response rating, Ryegrass, Italian” value (ryegrass, Italian; [3]) was 0 and the “Plant response rating, Ryegrass, Italian” value (ryegrass, Italian; [4]) was 15. The “Ryegrass, Italian plant response rating” value (ryegrass, Italian; [5]) was 0, the “Ryegrass, Italian plant response rating” value (ryegrass, Italian; [6]) was 0 and the “Plant response rating, Ryegrass, Italian” value (ryegrass, Italian; [7]) was 50. The “Plant response rating (scale of 0 to 100), Ryegrass, Italian” value (ryegrass, Italian; Preemergence, 250 g ai/ha) was 30, the “Wheat plant response rating (0 to 100 scale, 0 is no effect, 100 is complete control)” value (wheat) was 80 and the plant injury at 125 g/ha (wheat; Triticum aestivum, post-emergence, 240 h, 125 g ai/ha, 0 to 100 scale, 0 is no effect, 100 is complete control, read-out: Plant response rating, Wheat) was 60%. The “Plant response rating, Oilseed Rape” value (oilseed rape; [1]) was 0, the “Plant response rating, Oilseed Rape” value (oilseed rape; [2]) was 0 and the “Plant response rating, Oilseed Rape” value (oilseed rape; [3]) was 0. For the same compound, the “Plant response rating, Oilseed Rape” value (oilseed rape; [4]) was 45, the “Oilseed Rape plant response rating” value (oilseed rape; [5]) was 0 and the “Oilseed Rape plant response rating” value (oilseed rape; [6]) was 0. For the same compound, the “Plant response rating, Oilseed Rape” value (oilseed rape; [7]) was 0, the “Plant response rating (scale of 0 to 100), Oilseed Rape” value (oilseed rape; Preemergence, 250 g ai/ha) was 60 and the pest or weed control at 125 g/ha (barnyardgrass; Echinochloa crus-galli, post-emergence, 240 h, Postemergence, 125 g ai/ha, 0 to 100 scale, 0 is no effect, 100 is complete control, read-out: Plant response rating, Barnyardgrass) was 90%. The pest or weed control at 125 g/ha (barnyardgrass; Echinochloa crus-galli, pre-emergence, 240 h, 125 g ai/ha, visual rating, 0 to 100 scale, 0 no effect, 100 complete control, approximately 10 days, read-out: Plant response rating, Barnyardgrass) was 90%, the pest or weed control at 500 g/ha (barnyardgrass; Echinochloa crus-galli, pre-emergence, 240 h, preemergence, 500 g ai/ha, 0 to 100 scale, 0 is no effect and 100 is complete control, read-out: Plant response rating, Barnyardgrass) was 90% and the “Barnyardgrass plant response rating (0 to 100 scale, 0 is no effect, 100 is complete control)” value (barnyardgrass; Postemergence, 500 g ai/ha) was 90. For the same compound, the “Plant response rating, Wheat” value (wheat (winter wheat); [1]) was 0, the “Plant response rating, Wheat” value (wheat (winter wheat); [2]) was 0 and the “Plant response rating, Wheat” value (wheat (winter wheat); [3]) was 0. For the same compound, the “Plant response rating, Wheat” value (wheat (winter wheat); [4]) was 0, the “Wheat plant response rating” value (wheat (winter wheat); [5]) was 0 and the “Wheat plant response rating” value (wheat (winter wheat); [6]) was 70. The “Plant response rating, Wheat” value (wheat (winter wheat); [7]) was 80, the “Plant response rating (scale of 0 to 100), Wheat” value (wheat (winter wheat); Preemergence, 250 g ai/ha) was 90 and the “Plant response rating, Galium” value (galium; [1]) was 10. For the same compound, the “Plant response rating, Galium” value (galium; [2]) was 45, the “Plant response rating, Galium” value (galium; [3]) was 60 and the “Plant response rating, Galium” value (galium; [4]) was 60. For the same compound, the “Galium plant response rating” value (galium; [6]) was 90, the “Plant response rating, Galium” value (galium; [7]) was 90 and the “Plant response rating (scale of 0 to 100), Galium” value (galium; Preemergence, 250 g ai/ha) was 90. The “Plant response rating, Blackgrass” value (blackgrass; [1]) was 0, the “Plant response rating, Blackgrass” value (blackgrass; [2]) was 0 and the “Plant response rating, Blackgrass” value (blackgrass; [3]) was 0. The “Plant response rating, Blackgrass” value (blackgrass; [4]) was 50, the “Blackgrass plant response rating” value (blackgrass; Preemergence, 31 g ai/ha) was 90 and the “Plant response rating, Blackgrass” value (blackgrass; [8]) was 90. The “Plant response rating, Blackgrass” value (blackgrass; [7]) was 90, the “Plant response rating (scale of 0 to 100), Blackgrass” value (blackgrass; Preemergence, 250 g ai/ha) was 90 and the pest or weed control at 125 g/ha (pigweed; Amaranthus retroflexus, post-emergence, 240 h, Postemergence, 125 g ai/ha, 0 to 100 scale, 0 is no effect, 100 is complete control, read-out: Plant response rating, Pigweed) was 0%. For the same compound, the pest or weed control at 125 g/ha (pigweed; Amaranthus retroflexus, pre-emergence, 240 h, 125 g ai/ha, visual rating, 0 to 100 scale, 0 no effect, 100 complete control, approximately 10 days, read-out: Plant response rating, Pigweed) was 0%, the pest or weed control at 500 g/ha (pigweed; Amaranthus retroflexus, pre-emergence, 240 h, preemergence, 500 g ai/ha, 0 to 100 scale, 0 is no effect and 100 is complete control, read-out: Plant response rating, Pigweed) was 50% and the “Pigweed plant response rating (0 to 100 scale, 0 is no effect, 100 is complete control)” value (pigweed; Postemergence, 500 g ai/ha) was 20.

`O=C1NC[C@H](c2cccc(C(F)(F)F)c2)[C@H]1C(=O)Nc1cccc(F)c1F` [Compound 206] was tested, and the “Plant response rating, Nutsedge, Yellow” value (nutsedge, yellow; [1]) was 0, the “Plant response rating, Nutsedge, Yellow” value (nutsedge, yellow; [2]) was 20 and the “Plant response rating, Nutsedge, Yellow” value (nutsedge, yellow; [3]) was 0. The “Plant response rating, Nutsedge, Yellow” value (nutsedge, yellow; [4]) was 0, the “Nutsedge, Yellow plant response rating” value (nutsedge, yellow; [5]) was 0 and the “Nutsedge, Yellow plant response rating” value (nutsedge, yellow; [6]) was 0. For the same compound, the “Plant response rating, Nutsedge, Yellow” value (nutsedge, yellow; [7]) was 0, the “Plant response rating (scale of 0 to 100), Nutsedge, Yellow” value (nutsedge, yellow; Preemergence, 250 g ai/ha) was 0 and the “Plant response rating, Ryegrass, Italian” value (ryegrass, Italian; [1]) was 0. For the same compound, the “Plant response rating, Ryegrass, Italian” value (ryegrass, Italian; [2]) was 0, the “Plant response rating, Ryegrass, Italian” value (ryegrass, Italian; [3]) was 10 and the “Plant response rating, Ryegrass, Italian” value (ryegrass, Italian; [4]) was 35. For the same compound, the “Ryegrass, Italian plant response rating” value (ryegrass, Italian; [5]) was 30, the “Ryegrass, Italian plant response rating” value (ryegrass, Italian; [6]) was 40 and the “Plant response rating, Ryegrass, Italian” value (ryegrass, Italian; [7]) was 45. The “Plant response rating (scale of 0 to 100), Ryegrass, Italian” value (ryegrass, Italian; Preemergence, 250 g ai/ha) was 20, the “Plant response rating, Wheat” value (wheat; 125 g ai/ha, 0 to 100 scale, 0 is no effect, 100 is complete control) was 70 and the “Wheat plant response rating (0 to 100 scale, 0 is no effect, 100 is complete control)” value (wheat) was 80. For the same compound, the “Plant response rating, Oilseed Rape” value (oilseed rape; [1]) was 0, the “Plant response rating, Oilseed Rape” value (oilseed rape; [2]) was 30 and the “Plant response rating, Oilseed Rape” value (oilseed rape; [3]) was 50. The “Plant response rating, Oilseed Rape” value (oilseed rape; [4]) was 55, the “Oilseed Rape plant response rating” value (oilseed rape; [5]) was 5 and the “Oilseed Rape plant response rating” value (oilseed rape; [6]) was 70. For the same compound, the “Plant response rating, Oilseed Rape” value (oilseed rape; [7]) was 75, the “Plant response rating (scale of 0 to 100), Oilseed Rape” value (oilseed rape; Preemergence, 250 g ai/ha) was 90 and the “Plant response rating, Barnyardgrass” value (barnyardgrass; [9]) was 90. For the same compound, the “Plant response rating, Barnyardgrass” value (barnyardgrass; [10]) was 90, the “Barnyardgrass plant response rating (0 to 100 scale, 0 is no effect, 100 is complete control)” value (barnyardgrass; Postemergence, 500 g ai/ha) was 90 and the “Plant response rating, Barnyardgrass” value (barnyardgrass; [11]) was 90. The “Plant response rating, Wheat” value (wheat (winter wheat); [1]) was 0, the “Plant response rating, Wheat” value (wheat (winter wheat); [2]) was 0 and the “Plant response rating, Wheat” value (wheat (winter wheat); [3]) was 30. For the same compound, the “Plant response rating, Wheat” value (wheat (winter wheat); [4]) was 45, the “Wheat plant response rating” value (wheat (winter wheat); [5]) was 35 and the “Wheat plant response rating” value (wheat (winter wheat); [6]) was 40. The “Plant response rating, Wheat” value (wheat (winter wheat); [7]) was 70, the “Plant response rating (scale of 0 to 100), Wheat” value (wheat (winter wheat); Preemergence, 250 g ai/ha) was 70 and the “Plant response rating, Galium” value (galium; [1]) was 60. The “Plant response rating, Galium” value (galium; [2]) was 75, the “Plant response rating, Galium” value (galium; [3]) was 75 and the “Plant response rating, Galium” value (galium; [4]) was 75. For the same compound, the “Galium plant response rating” value (galium; [5]) was 20, the “Galium plant response rating” value (galium; [6]) was 70 and the “Plant response rating, Galium” value (galium; [7]) was 70. The “Plant response rating (scale of 0 to 100), Galium” value (galium; Preemergence, 250 g ai/ha) was 85, the “Plant response rating, Blackgrass” value (blackgrass; [1]) was 0 and the “Plant response rating, Blackgrass” value (blackgrass; [2]) was 0. For the same compound, the “Plant response rating, Blackgrass” value (blackgrass; [3]) was 40, the “Plant response rating, Blackgrass” value (blackgrass; [4]) was 60 and the “Blackgrass plant response rating” value (blackgrass; Preemergence, 31 g ai/ha) was 85. The “Plant response rating, Blackgrass” value (blackgrass; [8]) was 90, the “Plant response rating, Blackgrass” value (blackgrass; [7]) was 90 and the “Plant response rating (scale of 0 to 100), Blackgrass” value (blackgrass; Preemergence, 250 g ai/ha) was 90. The “Plant response rating, Pigweed” value (pigweed; [9]) was 30, the “Plant response rating, Pigweed” value (pigweed; [10]) was 50 and the “Pigweed plant response rating (0 to 100 scale, 0 is no effect, 100 is complete control)” value (pigweed; Postemergence, 500 g ai/ha) was 70. For the same compound, the “Plant response rating, Pigweed” value (pigweed; [11]) was 80.
